Laboratory results as given in publication PMC5308254, “Bioactivity of Natural and Engineered Antimicrobial Peptides from Venom of the Scorpions Urodacus yaschenkoi and U. manicatus” (Toxins, 2017).
No end group written: not given here.

Experiments:
[1] = test system: L. fleischmannii (DSM24998); assay: Growth inhibition assay (MIC), L. fleischmannii; type: cell-based, Listeria fleischmannii; conditions: 384-well plates, BHIB, 37 °C, peptide 0.015–250 µM; growth totally inhibited; average of n ≥ 3; dash = no inhibition
Description: (§1) The minimal inhibitory concentration (MIC) of each AMPs was determined against the Gram-positive bacteria Listeria monocytogenes (DSM20600), L. grayi (DSM20601), L. fleischmannii (DSM24998), Staphylococcus aureus (DSM2569) and Micrococcus luteus (DSM20030), and the Gram-negative species Escherichia coli (D31) and Pseudomonas aeruginosa (DSM50071). The scorpion peptides were prepared at concentrations of 0.015–250 μM. The assays were carried out in 384-well plates (Greiner Bio One, Frickenhausen, Germany) using Brain Heart Infusion Broth (BHIB) medium for Listeria spp., Tryptic Soy Broth (TSB) for S. aureus, and lysogeny broth (LB) for the others. The bacteria were cultivated overnight at either 37 °C (Listeria spp., S. aureus, E. coli and P. aeruginosa) or 30 °C (M. luteus) and subcultured in fresh media before the growth inhibition assays. Growth inhibition was measured as previously described.

seven different bacteria = assay: Antibacterial activity against all seven bacteria tested (summary); type: cell-based; conditions: approximate overall value
Description: as §1

[2] = test system: Micrococcus luteus (DSM20030); assay: Growth inhibition assay (MIC), M. luteus; type: cell-based; conditions: 384-well plates, LB, 30 °C, peptide 0.015–250 µM; MIC = concentration at which growth was totally inhibited; average of n ≥ 3; dash = no inhibition
Description: as §1

[3] = test system: Pseudomonas aeruginosa (DSM50071); assay: Growth inhibition assay (MIC), P. aeruginosa; type: cell-based; conditions: LB, 37 °C, highest concentration tested 250 µM
Description: as §1

[4] = test system: baby hamster kidney cells (BHK21); assay: Cytotoxicity, alamarBlue, BHK-21 cells; type: cell-based; conditions: 2 h at 37 °C, 0.1–100 µM, alamarBlue fluorescence, non-linear fit, n ≥ 3
Description: (§2) Cytotoxicity was evaluated using the baby hamster kidney cell line (BHK-21) included in F2H®-Kit Basic (Chromotek, Planegg-Martinsried, Germany). The BHK-21 cells were grown in 25-cm^2 cell culture flasks (Greiner Bio One, Frickenhausen, Germany) containing Dulbecco’s Modified Eagle’s Medium (DMEM) supplemented with 4.5 g/L glucose, 110 mg/L sodium pyruvate and L-glutamine, and 10% fetal bovine serum (FBS), and were maintained in an NU-5810 incubator (ibs tecnomara, Fernwald, Germany) at 37 °C with a 5% CO2 atmosphere. The cells were subcultured at ~90% confluence by detaching with 0.25% trypsin and 0.03% EDTA (Sigma-Aldrich, St Louis, MO, USA). The AMPs were dissolved in water and diluted to final concentrations of 0.1, 1, 10 and 100 µM in DMEM.
(§3) BHK-21 cells were prepared and tested as previously described. Confluent cells were detached, counted and seeded at a concentration of 8.5 × 10^4 cell/mL in a 96-well culture plate (Greiner Bio One-Cell Star) 48 h before each experiment. The cells were rinsed with 100 µL PBS before adding 100 µL of the AMP solution and incubating for 2 h at 37 °C. The AMP solution was then removed and the cells were rinsed again with PBS before staining with 10% v/v alamarBlue™ Dye (Thermo Fisher Scientific, Schwerte, Germany) in DMEM for 1 h. The fluorescence of the metabolized alamarBlue™ Dye was measured in an Eon microplate reader using excitation and emission filters of 528 and 590 nm, respectively. DMEM and cells exposed to DMEM without AMPs were included as a blank reference and negative control, respectively. Four independent experiments were carried out for each AMP concentration in triplicate. To assess the percentage of viable cells compared to the control, the data were analyzed with GraphPad Prism v5.0 software using non-linear regression to fit the curve (Figure S2). The EC50 was reported as the AMP concentration that reduces cell viability by 50%.

[5] = Cytotoxicity, alamarBlue, BHK-21 cells; type: cell-based, hamster; conditions: hamster, 2 h at 37 °C, 0.1–100 µM, alamarBlue fluorescence, non-linear fit, concentration reducing viability by 50%, n ≥ 3, read-out: EC50 (effective cytotoxic concentration)
Description: as §2, §3

L. grayi (DSM20601) = assay: Growth inhibition assay (MIC), L. grayi; type: cell-based, Listeria grayi; conditions: 384-well plates, BHIB, 37 °C, peptide 0.015–250 µM; growth totally inhibited; average of n ≥ 3; dash = no inhibition
Description: as §1

Escherichia coli (D31) = assay: Growth inhibition assay (MIC), E. coli; type: cell-based; conditions: 384-well plates, LB, 37 °C, peptide 0.015–250 µM; growth totally inhibited; average of n ≥ 3; dash = no inhibition
Description: as §1

[6] = test system: Listeria monocytogenes (DSM20600); assay: Growth inhibition assay (MIC), L. monocytogenes; type: cell-based; conditions: 384-well plates, BHIB, 37 °C, peptide 0.015–250 µM; growth totally inhibited; average of n ≥ 3; dash = no inhibition
Description: as §1

pig erythrocytes = assay: Hemolytic activity on pig erythrocytes; type: cell-based; conditions: 1 h at 37 °C; for HC10 (hemolytic concentration) / HC90 (hemolytic concentration) / HC50 (hemolytic concentration): 6.25–100 µM, absorbance 570 nm, non-linear fit; for HC10 (hemolytic concentration) / HC90 (hemolytic concentration): n ≥ 3; for HC50 (hemolytic concentration): n ≥ 3, n.c. (100) = not convergent at 100 µM
Description: The hemolytic activity of each AMP was determined using pig erythrocytes. Serial dilutions (6.25–100 µM) of each AMP were prepared, and after incubation for 1 h at 37 °C the cells were centrifuged and the absorbance of the supernatant was measured at 570 nm using an Eon Microplate Spectrophotometer (BioTek Instruments, Winooski, VT, USA). Three independent experiments were carried out for each concentration in triplicate. PBS and 10% Triton X–100 were used as negative and positive controls, respectively. The percentage hemolysis was calculated using the formula 100((Apeptide–APBS)/(Atriton–APBS)). The AMP concentration causing 50% hemolysis (HC50) of the pig erythrocytes was determined by non-linear regression with the data fitted to the logistical sigmoidal equation, using GraphPad Prism v5.0 (GraphPad Software, San Diego, CA, USA) (Figure S2).

## GFWGKLWEGVKNAI-NH2 [UyCT1]
[1]
  MIC L. fleischmannii: 4 µM
Seven different bacteria
  MIC against all seven bacteria tested: ~ 4 µM
[2]
  MIC M. luteus: 1 µM
[3]
  MIC P. aeruginosa (concentration inhibiting growth): 60 µM
[4]
  EC10 (effective cytotoxic concentration): 0.65 µM
  EC90 (effective cytotoxic concentration): 52.12 µM
[5]
  CC50 at 2 h: 17.4 µM
L. grayi (DSM20601)
  MIC L. grayi: 4 µM
Escherichia coli (D31)
  MIC E. coli: 4 µM
[6]
  MIC L. monocytogenes: 4 µM
Pig erythrocytes
  HC10 (hemolytic concentration): 31.5 µM
  HC90 (hemolytic concentration): 644.46 µM
  HC50 (hemolytic concentration): 142.5 µM

## GFWGKLWEGVKNAIKKK-NH2 [D11]
[1]
  MIC L. fleischmannii: 1 µM
Seven different bacteria
  MIC against all seven bacteria tested: ~ 1 µM
[2]
  MIC M. luteus: 0.25 µM
[3]
  MIC P. aeruginosa (concentration inhibiting growth): 30 µM
[4]
  EC10 (effective cytotoxic concentration): 0.66 µM
  EC90 (effective cytotoxic concentration): 53.43 µM
[5]
  CC50 at 2 h: 17.8 µM
L. grayi (DSM20601)
  MIC L. grayi: 1 µM
Escherichia coli (D31)
  MIC E. coli: 4 µM
[6]
  MIC L. monocytogenes: 2 µM
Pig erythrocytes; 100 µM peptide (highest tested), 10% Triton X-100 = 100% hemolysis
  percentage of hemolysis: ~ 10%
Pig erythrocytes
  HC10 (hemolytic concentration): 39.76 µM
  HC90 (hemolytic concentration): 30,984.53 µM
  HC50 (hemolytic concentration): 1110 µM
